#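 Dose response: 5 concentrations. Exposure: 48 h. Format: 96-well plates. Endpoint: linear interpolation; highest concentration if not reached. GI50: concentration for 50% inhibition of growth. Definition used: TGI = concentration required for complete inhibition of growth.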
# Columns and labels:
# Assay in all cases: NCI-60 cell line screen, 48 h
# 786-0 renal = test system: 786-0 renal
# A498 renal = test system: A498 renal
# A549 NSCLC = test system: A549 NSCLC
# ACHN renal = test system: ACHN renal
# BT-549 breast = test system: BT-549 breast
# CAKI-1 renal = test system: CAKI-1 renal
# CCRF-CEM leukemia = test system: CCRF-CEM leukemia
# COLO 205 colon = test system: COLO 205 colon
# DU-145 prostate = test system: DU-145 prostate
# HCC-2998 colon = test system: HCC-2998 colon
# HCT-116 colon = test system: HCT-116 colon
# HCT-15 colon = test system: HCT-15 colon
# HOP-62 NSCLC = test system: HOP-62 NSCLC
# HOP-92 NSCLC = test system: HOP-92 NSCLC
# HS 578T breast = test system: HS 578T breast
# HT29 colon = test system: HT29 colon
# IGROV1 ovarian = test system: IGROV1 ovarian
# K-562 leukemia = test system: K-562 leukemia
# KM12 colon = test system: KM12 colon
# LOX IMVI melanoma = test system: LOX IMVI melanoma
# M14 melanoma = test system: M14 melanoma
# MALME-3M melanoma = test system: MALME-3M melanoma
# MCF7 breast = test system: MCF7 breast
# MDA-MB-231 breast = test system: MDA-MB-231 breast
# MDA-MB-435 = test system: MDA-MB-435
# MOLT-4 leukemia = test system: MOLT-4 leukemia
# NCI-H226 lung = test system: NCI-H226 lung
# NCI-H23 lung = test system: NCI-H23 lung
# NCI-H460 lung = test system: NCI-H460 lung
# NCI-H522 lung = test system: NCI-H522 lung
# NCI/ADR-RES ovarian = test system: NCI/ADR-RES ovarian
# OVCAR-4 ovarian = test system: OVCAR-4 ovarian
# OVCAR-5 ovarian = test system: OVCAR-5 ovarian
# OVCAR-8 ovarian = test system: OVCAR-8 ovarian
# PC-3 prostate = test system: PC-3 prostate
# RPMI-8226 leukemia = test system: RPMI-8226 leukemia
# RXF 393 renal = test system: RXF 393 renal
# SF-268 CNS = test system: SF-268 CNS
# SF-295 CNS = test system: SF-295 CNS
# SF-539 CNS = test system: SF-539 CNS
# SK-MEL-2 melanoma = test system: SK-MEL-2 melanoma
# SK-MEL-28 melanoma = test system: SK-MEL-28 melanoma
# SK-MEL-5 melanoma = test system: SK-MEL-5 melanoma
# SK-OV-3 ovarian = test system: SK-OV-3 ovarian
# SN12C renal = test system: SN12C renal
# SNB-19 CNS = test system: SNB-19 CNS
# SNB-75 CNS = test system: SNB-75 CNS
# SR leukemia = test system: SR leukemia
# SW-620 colon = test system: SW-620 colon
# T-47D breast = test system: T-47D breast
# TK-10 renal = test system: TK-10 renal
# U251 CNS = test system: U251 CNS
# UACC-257 melanoma = test system: UACC-257 melanoma
# UACC-62 melanoma = test system: UACC-62 melanoma
# UO-31 renal = test system: UO-31 renal
structure (smiles),measurement,setting,value
CCCc1ccc(S(=O)(=O)N[C@H]2CC[C@H]3[C@@H]4CCc5cc(O)ccc5[C@H]4CC[C@]23C)cc1,GI50,786-0 renal,3.02 µM
same,TGI,786-0 renal,9.16 µM
same,GI50,A498 renal,1.78 µM
same,TGI,A498 renal,5.45 µM
same,GI50,A549 NSCLC,3.22 µM
same,TGI,A549 NSCLC,12.8 µM
same,GI50,ACHN renal,2.57 µM
same,TGI,ACHN renal,8.06 µM
same,GI50,BT-549 breast,2.47 µM
same,TGI,BT-549 breast,5.89 µM
same,GI50,CAKI-1 renal,3.45 µM
same,TGI,CAKI-1 renal,11.9 µM
same,GI50,CCRF-CEM leukemia,2.72 µM
same,TGI,CCRF-CEM leukemia,12 µM
same,GI50,COLO 205 colon,1.84 µM
same,TGI,COLO 205 colon,3.28 µM
same,GI50,DU-145 prostate,4.04 µM
same,TGI,DU-145 prostate,14 µM
same,GI50,HCC-2998 colon,4 µM
same,TGI,HCC-2998 colon,13.7 µM
same,GI50,HCT-116 colon,1.78 µM
same,TGI,HCT-116 colon,3.27 µM
same,GI50,HCT-15 colon,2.26 µM
same,TGI,HCT-15 colon,6.45 µM
same,GI50,HOP-62 NSCLC,4.65 µM
same,TGI,HOP-62 NSCLC,15.8 µM
same,GI50,HOP-92 NSCLC,1.91 µM
same,TGI,HOP-92 NSCLC,5.65 µM
same,GI50,HS 578T breast,3.33 µM
same,TGI,HS 578T breast,12.9 µM
same,GI50,HT29 colon,3.19 µM
same,TGI,HT29 colon,10.2 µM
same,GI50,IGROV1 ovarian,3.76 µM
same,TGI,IGROV1 ovarian,14.3 µM
same,GI50,K-562 leukemia,3.06 µM
same,TGI,K-562 leukemia,12 µM
same,GI50,KM12 colon,2.68 µM
same,TGI,KM12 colon,7.81 µM
same,GI50,LOX IMVI melanoma,1.72 µM
same,TGI,LOX IMVI melanoma,3.17 µM
same,GI50,M14 melanoma,3.21 µM
same,TGI,M14 melanoma,10.3 µM
same,GI50,MALME-3M melanoma,2.82 µM
same,TGI,MALME-3M melanoma,8.07 µM
same,GI50,MCF7 breast,2.66 µM
same,TGI,MCF7 breast,7.29 µM
same,GI50,MDA-MB-231 breast,2.29 µM
same,TGI,MDA-MB-231 breast,6.21 µM
same,GI50,MDA-MB-435,3.13 µM
same,TGI,MDA-MB-435,11.1 µM
same,GI50,MOLT-4 leukemia,2.36 µM
same,TGI,MOLT-4 leukemia,9.18 µM
same,GI50,NCI-H226 lung,1.57 µM
same,TGI,NCI-H226 lung,3.15 µM
same,GI50,NCI-H23 lung,3.31 µM
same,TGI,NCI-H23 lung,14.6 µM
same,GI50,NCI-H460 lung,2.54 µM
same,TGI,NCI-H460 lung,6.41 µM
same,GI50,NCI-H522 lung,2.32 µM
same,TGI,NCI-H522 lung,9.09 µM
same,GI50,NCI/ADR-RES ovarian,2.75 µM
same,TGI,NCI/ADR-RES ovarian,10.6 µM
same,GI50,OVCAR-4 ovarian,2.23 µM
same,TGI,OVCAR-4 ovarian,9.57 µM
same,GI50,OVCAR-5 ovarian,2.06 µM
same,TGI,OVCAR-5 ovarian,4.44 µM
same,GI50,OVCAR-8 ovarian,3.29 µM
same,TGI,OVCAR-8 ovarian,13.1 µM
same,GI50,PC-3 prostate,2.52 µM
same,TGI,PC-3 prostate,11.7 µM
same,GI50,RPMI-8226 leukemia,2.9 µM
same,TGI,RPMI-8226 leukemia,10 µM
same,GI50,RXF 393 renal,1.67 µM
same,TGI,RXF 393 renal,4.42 µM
same,GI50,SF-268 CNS,3.44 µM
same,TGI,SF-268 CNS,13.4 µM
same,GI50,SF-295 CNS,3.06 µM
same,TGI,SF-295 CNS,10.9 µM
same,GI50,SF-539 CNS,2.12 µM
same,TGI,SF-539 CNS,4.46 µM
same,GI50,SK-MEL-2 melanoma,2.72 µM
same,TGI,SK-MEL-2 melanoma,7.12 µM
same,GI50,SK-MEL-28 melanoma,2.45 µM
same,TGI,SK-MEL-28 melanoma,6.33 µM
same,GI50,SK-MEL-5 melanoma,1.63 µM
same,TGI,SK-MEL-5 melanoma,3.01 µM
same,GI50,SK-OV-3 ovarian,3.65 µM
same,TGI,SK-OV-3 ovarian,12.4 µM
same,GI50,SN12C renal,1.75 µM
same,TGI,SN12C renal,3.44 µM
same,GI50,SNB-19 CNS,4.2 µM
same,TGI,SNB-19 CNS,15.9 µM
same,GI50,SNB-75 CNS,2.23 µM
same,TGI,SNB-75 CNS,9.98 µM
same,GI50,SR leukemia,2.53 µM
same,TGI,SR leukemia,8.06 µM
same,GI50,SW-620 colon,3.6 µM
same,TGI,SW-620 colon,14.2 µM
same,GI50,T-47D breast,3.54 µM
same,TGI,T-47D breast,10.8 µM
same,GI50,TK-10 renal,3.8 µM
same,TGI,TK-10 renal,13.7 µM
same,GI50,U251 CNS,1.95 µM
same,TGI,U251 CNS,4.25 µM
same,GI50,UACC-257 melanoma,3.83 µM
same,TGI,UACC-257 melanoma,15.7 µM
same,GI50,UACC-62 melanoma,1.92 µM
same,TGI,UACC-62 melanoma,4.37 µM
same,GI50,UO-31 renal,2.23 µM
same,TGI,UO-31 renal,8.78 µM
